Measurements published in US20240165113A1, “METHODS OF TREATMENT FOR LEUKEMIA” (DNA SEQ 2, Inc., priority 2021, published 2024).
Like-named read-outs stand apart in the source and are kept apart here.

Target: T1, unphosphorylated ABL1(T315I)(229-499) (Homo sapiens, UniProt P00519, T315I)
T1 construct: The recombinant ABL1(T315I) (isoform 1a) residues 229-499 protein was designed with an N-terminal 10×His tag; made in house; host or cells: E. coli (co-expressed with YopH phosphatase and pGro7 chaperone)
T1 sequence (P00519 229-499 T315I): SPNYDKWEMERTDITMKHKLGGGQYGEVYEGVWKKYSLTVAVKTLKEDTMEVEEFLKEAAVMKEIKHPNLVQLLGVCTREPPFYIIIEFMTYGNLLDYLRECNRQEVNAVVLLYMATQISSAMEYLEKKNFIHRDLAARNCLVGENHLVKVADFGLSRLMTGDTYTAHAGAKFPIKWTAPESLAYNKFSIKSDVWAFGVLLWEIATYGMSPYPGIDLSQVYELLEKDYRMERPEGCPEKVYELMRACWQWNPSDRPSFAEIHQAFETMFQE
Experiment: SPR binding to unphosphorylated ABL1(T315I)(229-499)
Conditions: Ni-NTA capture of 10xHis-tag

Nc1nc(N)c(N=O)c(OCC2CCCCC2)n1 [A-0001, 6-Cyclohexylmethyloxy-5-nitroso-pyrimidine-2,4-diamine]
Kd (HBST buffer, read-out: Unphosphorylated ABL1(T315I)(229-499) in HBST buffer KD): 2 µM
Kd (PBST buffer, read-out: Unphosphorylated ABL1(T315I)(229-499) in PBST buffer KD): 5 µM
